# Source: patent US20070232577A1, “Synthetic pentacyclic triterpenoids and derivatives of betulinic acid and betulin” (Advanced Life Sciences, Inc., priority 2006, published 2007)
# Assays:
# [1] = test system: Daoy (glioblastoma); test: MTS cell viability assay, Daoy; conditions: for IC50: Homo sapiens, Daoy, 72 h, read-out: IC50 Daoy
# Method: (§2) Cells were plated, the evening before treatment, for each treatment on 96-well plates (1×10^4 cells/well) in 100 μL volume per well. Drug solutions were prepared by diluting each test compound in DSMO (10 mM) with the appropriate cell growth media for each individual cell line, or in “Universal Media” if several cell lines were to be assayed in parallel, immediately prior to cell treatment. Universal Media consisted of 5 mL sodium pyruvate (100×liquid stock, CellGro), 5 mL glucose (100×, 45% liquid stock, CellGro), 5 mL Penicillin/Streptomycin (100×liquid stock, CellGro), 10 mL sodium bicarbonate (50×liquid stock, CellGro), 25 mL Fetal Calf Serum, 1.25 mL insulin (4 mg/mL, Gibco) and 449 mL RPMI media with 2 mM glutamine for a total volume of 500 mL. Cells were treated by aspirating media from each well and adding 80 μL of each drug solution to the attached cells. All treatments were performed in triplicate. Growth media (80 μL) were added to 3 blank wells (no cells) to measure background from the growth media Growth media alone (no DMSO or test compond) was added to 2 wells containing cells to measure the baseline MTS activity and vehicle (DMSO) control solutions were also included to monitor basal toxicity from DMSO. Cells were incubated at 37° C. for 72 h. MTS reagent (per 96-well plate) were prepared by combining 2 mL of MTS working solution (Cell Titer AQueous Non-Radioactive Cell Proliferation Assay, Promega, cat#G1112), 100 μL of 0.92 mg/mL phenazine methosulfate/Dulbecco's PBS and 2.1 mL growth media. MTS reagent (40 μL) were added to each well and incubated at 37° C. for 1.5 to 4 h. Plates were gently shaken by hand until solution in each well appeared homogenous. Absorbances at 490 nm were measured on a plate reader at multiple time points following the addition of MTS reagent for each plate. Triplicate absorbance (490 nm) measurements were averaged following background (no cell) subtraction for each drug concentration. Percent Cell Viability was calculated for each drug concentration using the following equation: {[Absorbances(drug treated)]/[Absorbances(DMSO treated)]}×100%
# (§3) Percent viability (y-axis) was plotted against drug concentration (x-axis) and the resulting graph was used to determine the 50% inhibitory concentration (IC50) for each drug.
# [2] = test system: SK-MEL-2 (melanoma); test: MTS cell viability assay, SK-MEL-2; conditions: Homo sapiens, SK-MEL-2, 72 h, read-out: IC50 SK-MEL-2
# Method: as §2, §3
# [3] = test system: MCF-7 (breast carcinoma); test: MTS cell viability assay, MCF-7; format: cell-based; conditions: Homo sapiens, MCF7, 72 h
# Method: (§1) All treatments were performed in triplicate. […] Cells were incubated at 37° C. for 72 h.
# [4] = test system: OVCAR-3 (ovarian carcinoma); test: MTS cell viability assay, OVCAR-3; format: cell-based; conditions: Homo sapiens, 72 h
# Method: as §1
# [5] = test system: LN-229 (glioblastoma); test: MTS cell viability assay, LN-229; format: cell-based; conditions: Homo sapiens, 72 h
# Method: as §1
# [6] = test system: HT-29 (colon carcinoma); test: MTS cell viability assay, HT-29; format: cell-based; conditions: Homo sapiens, 72 h
# Method: as §1
# [7] = test system: A-375 (melanoma); test: MTS cell viability assay, A-375; format: cell-based; conditions: Homo sapiens, 72 h
# Method: as §1
# [8] = test system: SK-MEL-2 cells; test: Caspase activation assay, SK-MEL-2; format: cell-based; conditions: SK-MEL-2
# Method: All treatments were performed in duplicate. […] Cells were incubated at 37° C. for 8 h. Caspase assay reagent (per 96-well plate) was prepared according to manufacturer's instructions (Homogeneous Caspases Assay, fluorometric, Roche) by combining 6.3 mL Incubation Buffer with 0.7 mL of Substrate Stock Solution. Caspase assay reagent (70 μL) was added to each well; the plate was gently shaken by hand for 15-20 seconds and incubated at 37° C. for 4 h.
# Fluorescent emission was measured at 535 nm on a plate reader using the “homogeneous caspase” program (excitation Wavelength=490 nm, emission wavelength=535 nm). Duplicate wells for each treatment were averaged following background (no cells) subtraction (emission 535 nm value from all experimental emission 535 nm values) for each drug concentration.
# DMSO treatment represented baseline caspase activation in the absence of drug. The percent changes in caspase activity were plotted on the y-axis for each drug treatment.
# Caspase activation assays were conducted to further characterize the mode of cell death. A treatment time and dose at which maximum caspase activation was observed prior to massive cell destruction would be indicative of apoptosis induction. SK-MEL-2 cells were treated with 5, 15, and 50 μM of the compound for 2, 4, 6, 8, 16, and 24 h in the absence of FBS (Fetal Bovine Serum).
SMILES,IC50 [1] [µg/mL],IC50 [2] [µg/mL],IC50 [3] [µg/mL],IC50 [4] [µg/mL],IC50 [5] [µg/mL],IC50 [6] [µg/mL],IC50 [7] [µg/mL],caspase activation in SK-MEL-2 (in words) [8],"selectivity of cytotoxicity for Daoy (in words) ([1]; MTS assay, Daoy versus other cell lines)"
"C=C(C)[C@@H]1CC[C@]2(C(=O)O)CC[C@]3(C)[C@H](CC[C@@H]4[C@@]5(C)CC[C@H](O)C(C)(C)[C@@H]5CC[C@]43C)[C@@H]12 [Compound 1, (1R,3aS,5aR,5bR,7aR,9S,11aR, 11bR,13aR,13bR)-9-hydroxy-5a,5b,8,8,11a-pentamethyl-1-(prop-1-en-2-yl)icosahydro-1H-cyclopenta[a]chrysene-3a-carboxylic acid, reference compound]",31.3 ± 2.28,33.2 ± 3.77,50,59 ± 4.58,61,37,51,–,–
"C=C(C)[C@@H]1CC[C@]2(COC(=O)CBr)CC[C@]3(C)[C@H](CC[C@@H]4[C@@]5(C)CCC(=O)C(C)(C)[C@@H]5CC[C@]43C)[C@@H]12 [Compound 18, ((1R,3aS,5aR,5bR,7aR,11aR,11bR,13aR,13bR)-5a,5b,8,8,11a-pentamethyl-9-oxo-1-(prop-1-en-2-yl)icosahydro-1H-cyclopenta[a]chrysen-3a-yl)methyl 2-bromoacetate]",< 2,42,48,8,–,36,14,–,–
"C=C(C)[C@@H]1CC[C@]2(COC(=O)COC)CC[C@]3(C)[C@H](CC[C@@H]4[C@@]5(C)CC[C@H](OC(C)=O)C(C)(C)[C@@H]5CC[C@]43C)[C@@H]12 [Compound 19, ((1R,3aS,5aR,5bR,7aR,9S,11aR,11bR,13aR,13b R)-9-acetoxy-5a,5b,8,8,11a-pentamethyl-1-(prop-1-en-2-yl)icosahydro-1H-cyclopenta[a]chrysen-3a-yl)methyl 2-methoxyacetate]",7,6,> 75,> 75,> 75,> 75,7,–,–
"C=C(C)[C@@H]1CC[C@]2(CO)CC[C@]3(C)[C@H](CC[C@@H]4[C@@]5(C)CC6=C(ON(O)C6)C(C)(C)[C@@H]5CC[C@]43C)[C@@H]12 [Compound 33, (1R,3aS,5aR,5bR,7aR,12aR,12bR,14aR,14bR)-3a-(hydroxymethyl)-1-isopropenyl-5a,5b,8,8,12a-pentamethyl-1,2,3,3a,4,5,5a,5b,6,7,7a,8,11,12,12a,12b,13,14, 14a,14b-icosahydro-10H-cyclopenta[7,8]chryseno[3,2-d]isoxazol-10-ol]",–,–,–,–,–,–,–,induced caspase activation,–
"C=C(C)[C@@H]1CC[C@]2(COC(=O)CBr)CC[C@]3(C)[C@H](CC[C@@H]4[C@@]5(C)C=C(C#N)C(=O)C(C)(C)[C@@H]5CC[C@]43C)[C@@H]12 [Compound 39, ((1R,3aS,5aR,5bR,7aR,11aR,11bR,13aR,13bR)-10-cyano-5a,5b,8,8,11a-pentamethyl-9-oxo-1-(prop-1-en-2-yl)-2,3,3a,4,5,5a,5b,6,7,7a,8,9,11a,11b,12,13,13a,13b-octadecahydro-1H-cyclopenta[a]chrysen-3a-yl)methyl 2-bromoacetate]",< 2,20,13,7,7,6,4,induced caspase activation,–
"C=C(C)[C@@H]1CC[C@]2(COC(=O)COCC)CC[C@]3(C)[C@H](CC[C@@H]4[C@@]5(C)C=C(C#N)C(=O)C(C)(C)[C@@H]5CC[C@]43C)[C@@H]12 [Compound 40, ((1R,3aS,5aR,5bR,7aR,11aR,11bR,13aR,13bR)-10-cyano-5a,5b,8,8,11a-pentamethyl-9-oxo-1-(prop-1-en-2-yl)-2,3,3a,4,5,5a,5b,6,7,7a,8,9,11a,11b,12,13,13a,13b-octadecahydro-1H-cyclopenta[a]chrysen-3a-yl)methyl 2-ethoxyacetate]",4,> 10,30,10,28,10,6,–,–
"CC(C)[C@@H]1CC[C@]2(CO)CC[C@]3(C)[C@H](CC[C@@H]4[C@@]5(C)Cc6cnoc6C(C)(C)[C@@H]5CC[C@]43C)[C@@H]12 [Compound 49, [(1S,3aS,5aR,5bR,7aR,12aR,12bR,14aR,14bR)-1-isopropyl-5a,5b,8,8,12a-pentamethyl-1,2,3,4,5,5a,5b,6,7,7a,8,12,12a,12b,13,14,14a, 14b-octadecahydro-3aH-cyclopenta[7,8]chryseno[3,2-d]isoxazol-3a-yl]methanol]",4,6,> 75,50 to 75,> 75,50 to 75,10,–,–
"CC(C)[C@@H]1CC[C@]2(COC(=O)CBr)CC[C@]3(C)[C@H](CC[C@@H]4[C@@]5(C)Cc6cnoc6C(C)(C)[C@@H]5CC[C@]43C)[C@@H]12 [Compound 50, [(1S,3aS,5aR,5bR,7aR,12aR,12bR,14aR,14bR)-1-isopropyl-5a,5b,8,8,12a-pentamethyl-1,2,3,4,5,5a,5b,6,7,7a,8,12,12a,12b,13,14,14a, 14b-octadecahydro-3aH-cyclopenta[7,8]chryseno[3,2-d]isoxazol-3a-yl]methyl bromoacetate]",4,> 75,50,42,48,40,25,–,–
"CC(C)[C@@H]1CC[C@]2(CO)CC[C@]3(C)[C@H](CC[C@@H]4[C@@]5(C)C=C(C#N)C(=O)C(C)(C)[C@@H]5CC[C@]43C)[C@@H]12 [Compound 55, (1S,3aS,5aR,5bR,7aR,11aR,11bR,13aR,13bR)-3a-(hydroxymethyl)-1-isopropyl-5a,5b,8,8,11a-pentamethyl-9-oxo-2,3,3a,4,5,5a,5b,6,7,7a,8,9,11a,11b,12,13,13a,13b-octadecahydro-1H-cyclopenta[a]chrysene-10-carbonitrile]",–,–,> 75,8,–,7,4,–,–
"C=C(C)[C@@H]1CC[C@]2(C=O)CC[C@]3(C)[C@H](CC[C@@H]4[C@@]5(C)CCC(=O)C(C)(C)[C@@H]5CC[C@]43C)[C@@H]12 [Compound 66, (1R,3aS,5aR,5bR,7aR,11aR,11bR,13aR,13bR)-5a,5b,8,8,11a-pentamethyl-9-oxo-1-(prop-1-en-2-yl)icosahydro-1H-cyclopenta[a]chrysene-3a-carbaldehyde]",6,28,38,20,35,21,15,–,selective toxicity towards Daoy
"C=C(C)[C@@H]1CC[C@]2(CNCCCl)CC[C@]3(C)[C@H](CC[C@@H]4[C@@]5(C)CC[C@H](O)C(C)(C)[C@@H]5CC[C@]43C)[C@@H]12 [Compound 70, (1R,3aS,5aR,5bR,7aR,9S,11aR,11bR,13aR,13bR)-3a-((2-chloroethylamino)methyl)-5a,5b,8,8,11a-pentamethyl-1-(prop-1-en-2-yl)icosahydro-1H-cyclopenta[a]chrysen-9-ol]",< 2,35,54,10,–,19,20,–,–
"C=C(C)[C@@H]1CC[C@]2(C(=O)O)CC[C@]3(C)[C@H](CC[C@@H]4[C@@]5(C)CCC(NCCO)C(C)(C)[C@@H]5CC[C@]43C)[C@@H]12 (stereo partly drawn) [Compound 77, (1R,3aS,5aR,5bR,7aR,11aR,11bR,13aR,13bR)-9-(2-hydroxyethylamino)-5a,5b,8,8,11a-pentamethyl-1-(prop-1-en-2-yl)icosahydro-1H-cyclopenta[a]chrysene-3a-carboxylic acid]",< 2,36,35,28,–,16,14,–,–
"CC(C)[C@@H]1CC[C@]2(C(=O)O)CC[C@]3(C)[C@H](CC[C@@H]4[C@@]5(C)CCC(=O)C(C)(C)[C@@H]5CC[C@]43C)[C@@H]12 [Compound 87, (1S,3aS,5aR,5bR,7aR,11aR,11bR,13aR,13bR)-1-isopropyl-5a,5b,8,8,11a-pentamethyl-9-oxoicosahydro-1H-cyclopenta[a]chrysene-3a-carboxylic acid]",5,16,38,22,28,35,22,–,–
